# According to patent US8247211B2, “Glycopeptide antibiotics” (American Cyanamid Company, priority 2001, dated 2012):
# Key:
# Assay in all cases: In vitro antibacterial evaluation: minimum inhibitory concentration (MIC), broth dilution method
# Assay type in all cases: cell-based
# Enterococcus sp. = system: Enterococcus sp.
# Outline: (§1)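 Susceptibility determined by NCCLS-recommended broth dilution (M7-A2), Muller-Hinton II […]. Concentration span 64-0.06 μg/mL, inoculum 5×10^5 CFU/mL. Isolates include strains resistant to methicillin, penicillin and/or vancomycin.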
# Escherichia coli [1] = system: Escherichia coli
# Outline: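 NCCLS M7-A2 broth dilution; Muller-Hinton II […]; 5×10^5 CFU/mL; 64-0.06 μg/mL. MIC = lowest concentration with no growth.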
# Staphylococcus sp. = conditions: 18 hours at 35° C.
# Outline: as §1
# Streptococcus sp. = conditions: 18 hours at 35° C.
# Outline: as §1
# Escherichia coli [2] = system: Escherichia coli; remark: listed apart in the source
# [3] = Enterococcus faecalis (ATCC 29212)
# [4] = Enterococcus faecalis (GC 2242), 18 hours at 35° C.
# [5] = Enterococcus faecalis (GC 4552), 18 hours at 35° C.
# [6] = Enterococcus faecalis (GC 4553)
# [7] = Enterococcus faecalis (GC 4554)
# [8] = Staphylococcus aureus (ATCC 29213)
# [9] = Staphylococcus aureus (GC 1131)
# [10] = Staphylococcus aureus (GC 4541)
# [11] = Staphylococcus aureus (GC 4542)
# [12] = Staphylococcus aureus (GC 4544)
# [13] = Staphylococcus aureus (GC 4545)
# [14] = Streptococcus agalactiae (GC 4564)
# [15] = Streptococcus pyogenes (ID-3187)
molecule,measurement,setting,value
CC(C)CC(=O)OC1C(OC2C(CO)OC(Oc3ccc(CC4NC(=O)C(C(C)c5cccc(F)c5)NC(=O)CNC(=O)C(CO)NC(=O)C(C(O)C5CNC(=N)N5C5OC(CO)C(O)C(O)C5O)NC(=O)C(C(O)C5CNC(=N)N5)NC4=O)cc3)C(O)C2O)OC(CO)C(O)C1O (stereo not drawn) [Example 264a],MIC Enterococcus avium (GC 4558),Enterococcus sp.; Enterococcus avium (GC 4558),>64 µg/mL
same,MIC Enterococcus faecalis (ATCC 29212),Enterococcus sp.; [3],64 µg/mL
same,MIC Enterococcus faecalis (GC 2242),Enterococcus sp.; [4],64 µg/mL
same,MIC Enterococcus faecalis (GC 4552),Enterococcus sp.; [5],>64 µg/mL
same,MIC Enterococcus faecalis (GC 4553),Enterococcus sp.; [6],>64 µg/mL
same,MIC Enterococcus faecalis (GC 4554),Enterococcus sp.; [7],>64 µg/mL
same,MIC Enterococcus faecium (GC 2243),Enterococcus sp.; Enterococcus faecium (GC 2243),>64 µg/mL
same,MIC Enterococcus faecium (GC 4556),Enterococcus sp.; Enterococcus faecium (GC 4556),64 µg/mL
same,MIC Enterococcus faecium (GC 4557),Enterococcus sp.; Enterococcus faecium (GC 4557),32 µg/mL
same,MIC Escherichia coli (GC 4559),Escherichia coli [1],>64 µg/mL
same,MIC Escherichia coli (GC 4560),Escherichia coli [1],4 µg/mL
same,MIC Coagulase Negative Staphylococcus (GC 4547),Staphylococcus sp.,8 µg/mL
same,MIC Coagulase Negative Staphylococcus (GC 4547),Staphylococcus sp.; broth dilution,8 µg/mL
same,MIC Coagulase Negative Staphylococcus (GC 4548),Staphylococcus sp.,4 µg/mL
same,MIC Coagulase Negative Staphylococcus (GC 4548),Staphylococcus sp.; broth dilution,4 µg/mL
same,MIC Coagulase Negative Staphylococcus (GC 4549),Staphylococcus sp.,4 µg/mL
same,MIC Coagulase Negative Staphylococcus (GC 4549),Staphylococcus sp.; broth dilution,4 µg/mL
same,MIC Coagulase Negative Staphylococcus (GC 4551),Staphylococcus sp.,16 µg/mL
same,MIC Coagulase Negative Staphylococcus (GC 4551),Staphylococcus sp.; broth dilution,16 µg/mL
same,MIC Staphylococcus aureus (ATCC 29213),Staphylococcus sp.; [8],16 µg/mL
same,MIC Staphylococcus aureus (ATCC 29213),"Staphylococcus sp.; Staphylococcus aureus (ATCC 29213), broth dilution",16 µg/mL
same,MIC Staphylococcus aureus (GC 1131),Staphylococcus sp.; [9],16 µg/mL
same,MIC Staphylococcus aureus (GC 1131),"Staphylococcus sp.; Staphylococcus aureus (GC 1131), broth dilution",16 µg/mL
same,MIC Staphylococcus aureus (GC 4541),Staphylococcus sp.; [10],16 µg/mL
same,MIC Staphylococcus aureus (GC 4541),"Staphylococcus sp.; Staphylococcus aureus (GC 4541), broth dilution",16 µg/mL
same,MIC Staphylococcus aureus (GC 4542),Staphylococcus sp.; [11],16 µg/mL
same,MIC Staphylococcus aureus (GC 4542),"Staphylococcus sp.; Staphylococcus aureus (GC 4542), broth dilution",16 µg/mL
same,MIC Staphylococcus aureus (GC 4544),Staphylococcus sp.; [12],8 µg/mL
same,MIC Staphylococcus aureus (GC 4544),"Staphylococcus sp.; Staphylococcus aureus (GC 4544), broth dilution",8 µg/mL
same,MIC Staphylococcus aureus (GC 4545),Staphylococcus sp.; [13],8 µg/mL
same,MIC Staphylococcus aureus (GC 4545),"Staphylococcus sp.; Staphylococcus aureus (GC 4545), broth dilution",8 µg/mL
same,MIC Staphylococcus aureus-SMITH (GC 4543),Staphylococcus sp.,8 µg/mL
same,MIC Staphylococcus aureus-SMITH (GC 4543),Staphylococcus sp.; broth dilution,8 µg/mL
same,MIC Staphylococcus haemolyticus (GC 4546),Staphylococcus sp.,8 µg/mL
same,MIC Staphylococcus haemolyticus (GC 4546),Staphylococcus sp.; broth dilution,8 µg/mL
same,MIC Streptococcus agalactiae (GC 4564),Streptococcus sp.; [14],8 µg/mL
same,MIC Streptococcus pyogenes (ID-3187),Streptococcus sp.; [15],4 µg/mL
same,MIC Escherichia coli (ATCC 25922),Escherichia coli [2],64 µg/mL
α-O-[(Cyclohexylamino)carbonyl]-cyclo[glycyl-β-methylphenylalanyl-O-(4-O-hexopyranosylhexopyranosyl)tyrosyl-3-(2-iminoimidazolidin-4-yl)seryl-3-(3-hexopyranosyl-2-iminoimidazolidin-4-yl)serylseryl] [Example 256],MIC Enterococcus avium (GC 4558),Enterococcus sp.; Enterococcus avium (GC 4558),>64 µg/mL
same,MIC Enterococcus faecalis (ATCC 29212),Enterococcus sp.; [3],>64 µg/mL
same,MIC Enterococcus faecalis (GC 2242),Enterococcus sp.; [4],>64 µg/mL
same,MIC Enterococcus faecalis (GC 4552),Enterococcus sp.; [5],>64 µg/mL
same,MIC Enterococcus faecalis (GC 4553),Enterococcus sp.; [6],>64 µg/mL
same,MIC Enterococcus faecalis (GC 4554),Enterococcus sp.; [7],>64 µg/mL
same,MIC Enterococcus faecium (GC 2243),Enterococcus sp.; Enterococcus faecium (GC 2243),>64 µg/mL
same,MIC Enterococcus faecium (GC 4556),Enterococcus sp.; Enterococcus faecium (GC 4556),>64 µg/mL
same,MIC Enterococcus faecium (GC 4557),Enterococcus sp.; Enterococcus faecium (GC 4557),64 µg/mL
same,MIC Enterococcus faecalis (ATCC 29212),"Enterococcus sp.; broth dilution, 18 hours at 35° C., strain ATCC 29212",>64 µg/mL
same,MIC Enterococcus faecalis (GC 2242),"Enterococcus sp.; broth dilution, 18 hours at 35° C., strain GC 2242",>64 µg/mL
same,MIC Enterococcus faecium (GC 2243),"Enterococcus sp.; broth dilution, 18 hours at 35° C., strain GC 2243",>64 µg/mL
same,MIC Enterococcus faecalis (GC 4552),"Enterococcus sp.; broth dilution, 18 hours at 35° C., strain GC 4552",>64 µg/mL
same,MIC Enterococcus faecalis (GC 4553),"Enterococcus sp.; broth dilution, 18 hours at 35° C., strain GC 4553",>64 µg/mL
same,MIC Enterococcus faecalis (GC 4554),"Enterococcus sp.; broth dilution, 18 hours at 35° C., strain GC 4554",>64 µg/mL
same,MIC Enterococcus faecium (GC 4556),"Enterococcus sp.; broth dilution, 18 hours at 35° C., strain GC 4556",>64 µg/mL
same,MIC Enterococcus faecium (GC 4557),"Enterococcus sp.; broth dilution, 18 hours at 35° C., strain GC 4557",64 µg/mL
same,MIC Enterococcus avium (GC 4558),"Enterococcus sp.; broth dilution, 18 hours at 35° C., strain GC 4558",>64 µg/mL
same,MIC Escherichia coli (GC 4559),Escherichia coli [1],>64 µg/mL
same,MIC Escherichia coli (GC 4560),Escherichia coli [1],32 µg/mL
same,MIC Coagulase Negative Staphylococcus (GC 4547),Staphylococcus sp.,>64 µg/mL
same,MIC Coagulase Negative Staphylococcus (GC 4548),Staphylococcus sp.,>64 µg/mL
same,MIC Coagulase Negative Staphylococcus (GC 4549),Staphylococcus sp.,>64 µg/mL
same,MIC Coagulase Negative Staphylococcus (GC 4551),Staphylococcus sp.,>64 µg/mL
same,MIC Coagulase Negative Staphylococcus (ID-3941),Staphylococcus sp.; Coagulase Negative Staphylococcus (ID-3941),>64 µg/mL
same,MIC Staphylococcus aureus (ATCC 29213),Staphylococcus sp.; [8],>64 µg/mL
same,MIC Staphylococcus aureus (GC 1131),Staphylococcus sp.; [9],>64 µg/mL
same,MIC Staphylococcus aureus (GC 4541),Staphylococcus sp.; [10],>64 µg/mL
same,MIC Staphylococcus aureus (GC 4542),Staphylococcus sp.; [11],>64 µg/mL
same,MIC Staphylococcus aureus (GC 4544),Staphylococcus sp.; [12],>64 µg/mL
same,MIC Staphylococcus aureus (GC 4545),Staphylococcus sp.; [13],>64 µg/mL
same,MIC Staphylococcus aureus-SMITH (GC 4543),Staphylococcus sp.,>64 µg/mL
same,MIC Staphylococcus haemolyticus (GC 4546),Staphylococcus sp.,>64 µg/mL
same,MIC Staphylococcus aureus (ATCC 29213),"Staphylococcus sp.; broth dilution, strain ATCC 29213",>64 µg/mL
same,MIC Staphylococcus aureus (GC 1131),"Staphylococcus sp.; broth dilution, strain GC 1131",>64 µg/mL
same,MIC Staphylococcus aureus (GC 4541),"Staphylococcus sp.; broth dilution, strain GC 4541",>64 µg/mL
same,MIC Staphylococcus aureus (GC 4542),"Staphylococcus sp.; broth dilution, strain GC 4542",>64 µg/mL
same,MIC Staphylococcus aureus (GC 4544),"Staphylococcus sp.; broth dilution, strain GC 4544",>64 µg/mL
same,MIC Staphylococcus aureus (GC 4545),"Staphylococcus sp.; broth dilution, strain GC 4545",>64 µg/mL
same,MIC Streptococcus agalactiae (GC 4564),Streptococcus sp.; [14],>64 µg/mL
same,MIC Streptococcus pneumoniae (GC 4565),Streptococcus sp.; Streptococcus pneumoniae (GC 4565),>64 µg/mL
same,MIC Streptococcus pyogenes (ID-3187),Streptococcus sp.; [15],64 µg/mL
same,MIC Streptococcus agalactiae (GC 4564),"Streptococcus sp.; broth dilution, strain GC 4564",>64 µg/mL
same,MIC Streptococcus pneumoniae (GC 4565),"Streptococcus sp.; broth dilution, strain GC 4565",>64 µg/mL
same,MIC Streptococcus pyogenes (ID-3187),"Streptococcus sp.; broth dilution, strain ID-3187",64 µg/mL
same,MIC Escherichia coli (ATCC 25922),Escherichia coli [2],>64 µg/mL
